Test results reported in patent US6656963B2, “Indole-3-carbinol (I3C) derivatives and methods” (The Regents of the University of California, priority 1997, dated 2003).
Entries after “also recorded” stand apart in the source; their conditions may differ. Where two headings read alike, the source gives them in different places.

Columns and labels:
[1] = system: 7,12-dimethyl-benz(α)anthracene (DMBA)-induced mammary tumors; conditions: cited from earlier work
[2] = system: MCF7 human breast cancer cells; test: cells; conditions: for cell proliferation: 48 hours
Method: (§1) Particularly suitable assays for I3C derivatives include evaluating their ability to induce a G1 cell cycle arrest and to inhibit CDK6 protein levels in cultured MCF7 breast cancer cells. For the cell proliferative asssays, we have sucessfully employed several methods that we have previously described for rodent mammary tumor cells (44, 51). Briefly, human MCF7 breast cancer cells are cultured at subconfluency in medium supplemented with 10% fetal bovine serum and […] insulin. […] The incorporation of [^3H]thymidine (in a two hour pulse) into 10% trichloroacetic acid precipitable material are used to monitor and quantitate DNA synthesis and provides a direct measure of the proliferative state of the cells.
(§2) Antiproliferative effects of a combination of I3C and the anti-estrogen tamoxifen on breast cancer cell growth: Estrogen receptor (ER)-containing MCF7 or ER-deficient MDA-MB-231 breast cancer cells were treated for 48 hours with 100 μM I3C or 10 μM tamoxifen alone or with a combination of both reagents, and [^3H]thymidine incorporation used as a measure of cell proliferation.

Ah (dioxin) receptor = conditions: cited from earlier work
cell growth = test: Inhibition of cell growth; format: cell-based
estrogen receptor (ER) = test: ERE-vit-CAT reporter plasmid activity in transiently transfected MCF7 cells; format: cell-based, human; conditions: 48 hours; for effect on ERE-vit-CAT activity: estrogen 100 nM
Method: Cancer cells are also treated with combinations of indole-derivatives and either steroidal or nonsteroidal anti-estrogens, such as tamoxifen, ICI 164384 and raloxifene (39, 52), at both suboptimal and optimal doses to determine the ability of a given I3C derivative to syngerize with the anti-estrogens in the growth suppression response. […] For example, MCF7 cells are transiently transfected with the ERE-vit-CAT reporter plasmid, which contains three estrogen responsive elements, and the cells monitored for changes in estrogen regulated CAT activity. For comparison, the effects of the I3C derivatives on growth of the estrogen-non-responsive MDA-MB-231 breast cell line are examined. […] Therefore, purified indole derivatives is also assayed in MCF7 cells for Ah receptor affinity, activation of Ah receptor binding to DNA, and activation of an Ah receptor-responsive CAT reporter (17).
(§3) I3C effects on estrogen receptor (ER) function was monitored by transient transfection of an ERE-vit-CAT reporter plasmid containing the vitellogenin promoter with three estrogen response elements linked upstream and driving the bacterial chloramphenicol acetyl transferase (CAT) gene.

CDK4 = test: Western/Northern blot of CDK4 expression; format: cell-based, human; conditions: same conditions as CDK6 reduction
Method: (§4) Our finding that I3C inhibits the protein levels of the CDK6 cell cycle component provides a unique molecular assay to determine the ability of a given I3C derivative to induce a cell cycle arrest of cancer cells. For example, I3C derivatives may be analyzed by western blot to determine the level of CDK6 protein produced in treated or untreated human MCF7 breast cancer cells. In particular, cells are treated with varying concentrations, varying times alone or in the presence of particular sets of anti-estrogens; treatment with I3C may be used as a positive control. The cell extracts are then electrophoretically fractionated in SDS polyacrylamide gels, blotted onto nitrocellular membranes, the blotted proteins probed with CDK6 antibodies and the CDK6 protein visualized by autoradiography. Other G1 acting cell cycle genes maybe examined to confirm that a given I3C derivative is acting similarly to I3C itself. For example, the levels of the other cyclin dependent kinases (CDK2 and CDK4), cell cycle activators (cyclin D 1, D2, D3 and E) or cell cycle inhibitors (p 15, 16, p21 or p27) that function at discrete times within G1 may be assessed in indole treated or untreated MCF7 breast cancer cells. […]

[3] = system: estradiol 2-hydroxylation; conditions: oral, around 500 mg daily for one week, men and women; cited from earlier work
[4] = system: estrogen receptor-deficient MDA-MB-231 breast cancer cells; test: [3H]thymidine incorporation in estrogen receptor-deficient breast cancer cells; format: cell-based, human; conditions: for growth inhibitory effect: 48 hours, 100 μM I3C, 10 μM tamoxifen, alone or combined
Method: as §3, §2

CDK6 [5] = test: Western and Northern blot of CDK6 in treated breast cancer cells; format: cell-based, human; conditions: for level of CDK6 protein (Western blot): cells treated with combinations of I3C and/or tamoxifen
Method: For example, I3C derivatives may be analyzed by western blot to determine the level of CDK6 protein produced in treated or untreated human MCF7 breast cancer cells. In particular, cells are treated with varying concentrations, varying times alone or in the presence of particular sets of anti-estrogens; treatment with I3C may be used as a positive control. The cell extracts are then electrophoretically fractionated in SDS polyacrylamide gels, blotted onto nitrocellular membranes, the blotted proteins probed with CDK6 antibodies and the CDK6 protein visualized by autoradiography. […] For example, the levels of the other cyclin dependent kinases (CDK2 and CDK4), cell cycle activators (cyclin D 1, D2, D3 and E) or cell cycle inhibitors (p 15, 16, p21 or p27) that function at discrete times within G1 may be assessed in indole treated or untreated MCF7 breast cancer cells.
To determine the mechanism by which I3C induces the G1 cell cycle arrest of human breast cancer cells, Western blot and Northern blot analyses were utilized to examine whether I3C treatment regulates the protein production and transcript expression of the cyclin dependent protein kinases (CDKs), cyclins and CDK Inhibitor components of the cell cycle that function within the G1 phase.

p21 cell cycle inhibitor = test: Western blot of p21 cell cycle inhibitor level; format: cell-based, human; conditions: only after 72-96 hours of treatment
Method: Western blot analysis has shown that I3C stimulates the level of the p21 cell cycle inhibitor by approximately 3-4 fold only after 72-96 hours of indole treatment, which is when the cells begin to display their maximal cell cycle arrest. This response is not likely to initiate the cell cycle arrest, though provides another useful molecular marker to in the examination of tissue biopsies.

[6] = system: DMBA-induced mammary tumors; conditions: administered prior to and during DMBA treatment; cited from earlier work
[7] = system: methylnitrosourea-induced mammary tumors; conditions: administered prior to and during methylnitrosourea treatment; cited from earlier work
CDK2 = test: Western/Northern blot of CDK2 expression; format: cell-based, human; conditions: same conditions as CDK6 reduction
Method: as §4

[8] = gastric acid; cited from earlier work
MCF-7 cells = test: Flow cytometry of nuclear DNA content (propidium iodide), cell cycle arrest; format: cell-based, human; conditions: for percentage of MCF7 cells arrested in G1: I3C, tamoxifen alone or combined
Method: as §1
To assess the cell cycle effects of I3C, MCF-7 cells treated with or without 100 μM I3C for 96 hours were hypotonically lysed in the presence of propidium iodide to fluorescently stain the nuclear DNA.
as §2

[9] = system: human MCF7 breast cancer cells; conditions: 50 μM, long term treatment (up to six weeks), high density cultures; cited from earlier work
[10] = system: spontaneous mammary tumors; conditions: cited from earlier work
CDK6 [11] = test: CDK6 protein expression in estrogen receptor negative cell lines; format: cell-based
Method: To determine the mechanism by which I3C induces the G1 cell cycle arrest of human breast cancer cells, Western blot and Northern blot analyses were utilized to examine whether I3C treatment regulates the protein production and transcript expression of the cyclin dependent protein kinases (CDKs), cyclins and CDK Inhibitor components of the cell cycle that function within the G1 phase. […] In particular, CDK6 transcript levels dropped about 30% in 5 hrs and 60% by 15 hours. […] Furthermore, 13C inhibits CDK6 protein expression in estrogen receptor negative cell lines. […] This novel observation provides a basis for a molecular diagnostic assay to determine the sensitivity of a given tumor sample to I3C growth suppression.

cyclin D1 = conditions: estrogen responsive breast cancer cells; cited from earlier work

Compound: c1ccc2c(Cc3c[nH]c4ccccc34)c[nH]c2c1 [DIM, 3,3′-diindolylmethane]
- reduction of DMBA-induced mammary tumors ([1]; in vivo): highly effective
- suppression of MCF7 cell growth ([2]; acid products of I3C): do not suppress growth; also recorded: failed to suppress the growth
- Kd (Ah (dioxin) receptor): 0.09 µM

Compound: CC(=O)OCc1cn(C(C)=O)c2ccccc12 [N,O-diacetyl-indole-3-carbinol]
- inhibition of cell growth (cell growth): particularly effective inhibitors of cell growth

Compound: estrogen
- effect on ERE-vit-CAT activity (estrogen receptor (ER)): stimulated

Compound: OCc1c[nH]c2ccccc12 [Compound I3C, Indole-3-carbinol]
- reduction of incidence of DMBA-induced mammary tumors ([1]; in the diet or by oral intubation prior to carcinogen): 70-80%
- cell morphology ([2]; 100 μM): no morphology change
- cell proliferation ([2]; 100 μM): near maximally growth arrested
- cell morphology ([2]; 300 μM): changed to a more elongated phenotype
- cell proliferation ([2]; 300 μM): maximally inhibited
- IC50 ([2]; Homo sapiens, MCF7, read-out: half-maximal response, inhibition of [3H]thymidine incorporation): 30 µM
- inhibition at 100 µM ([2]; Homo sapiens, MCF7, read-out: inhibition of MCF7 DNA synthesis ([3H]thymidine incorporation) compared to vehicle controls, 48 hours, 100 μM I3C, 10 μM tamoxifen, alone or combined): ~70%
- inhibition at 100 µM ([2]; Homo sapiens, MCF7, read-out: inhibition of [3H]thymidine incorporation, 100 μM, after 72 hours): 80%
- inhibition at 100 µM ([2]; Homo sapiens, MCF7, read-out: inhibition of [3H]thymidine incorporation, 100 μM, after 96 hours): > 90%
- cell death ([2]; prolonged exposure (5 days)): did not result in any detectable cell death
- reversibility of growth suppression ([2]; time course of addition and withdrawal): completely reversible
- rate of [3H]thymidine incorporation after withdrawal ([2]; within 48 hours of withdrawal from 48 or 72 hour treated cells): approximately equivalent to untreated cells
- effect on CDK4 expression (CDK4): no effect
- increase in estradiol 2-hydroxylation [3]: approximately 50%
- growth inhibitory effect [4]: strong growth suppression effect
- inhibition at 100 µM ([4]; Homo sapiens, MDA-MB-231, 100 μM, read-out: inhibition of proliferation ([3H]thymidine incorporation)): > 50%
- time of indole treatment to reduced level of CDK6 protein (CDK6 [5]; 48 hours prior to complete cell cycle arrest): ≤ 24 h
- drop of CDK6 transcript levels (CDK6 [5]; by 15 hours): ~60%
- level of CDK6 protein (Western blot) (CDK6 [5]): reduced the level of CDK6 protein
- drop of CDK6 transcript levels (CDK6 [5]; in 5 hrs): about 30%
- stimulation of p21 level (p21 cell cycle inhibitor): 3-4 fold
- effect on ERE-vit-CAT activity (estrogen receptor (ER)): no effect
- reduction of mammary tumor incidence [6]: ≤ 95%
- reduction of mammary tumor incidence [7]: ≤ 65%
- effect on CDK2 expression (CDK2): no effect
- stability in acidic solution [8]: extremely unstable
- cells remaining with G2/M DNA content (MCF-7 cells; 100 μM, 96 hours): approximately 13%
- cells with 2n DNA content (G1 block) (MCF-7 cells; 100 μM, 96 hours): 75%
- percentage of MCF7 cells arrested in G1 (MCF-7 cells): 75%
- estradiol-induced proliferation [9]: blocked
- Kd (Ah (dioxin) receptor): 27 µM
- reduction of spontaneous mammary tumor incidence and multiplicity ([10]; diets with 500 or 2000 p.p.m., both doses): ca. 50%
- tumor latency ([10]; high dose group): prolonged
- CDK6 protein expression (CDK6 [11]): inhibits

Compound: CC/C(=C(\c1ccccc1)c1ccc(OCCN(C)C)cc1)c1ccccc1 [tamoxifen]
- cyclin D1 levels (cyclin D1): reduces
- growth inhibitory effect [4]: no growth inhibitory effects
- level of CDK6 protein (Western blot) (CDK6 [5]): not
- inhibition of basal ERE-vit-CAT reporter plasmid activity (estrogen receptor (ER); 10% fetal bovine serum): 70%
- percentage of MCF7 cells arrested in G1 (MCF-7 cells): 70%
